Source: patent publication US8192962B2, “Processes for detecting toxic substances” (Daikin Industries, Ltd., priority 2001, dated 2012)

Test system: Transport facilitation protein genes
Test: DNA chip mRNA expression in yeast, transport facilitation protein genes (Table 5)
Type: cell-based, Saccharomyces cerevisiae S288C
Method in brief: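 Ratios compare mRNA levels in stressed and control S. cerevisiae. Each toxicant was applied for two hours to log-phase cultures at 25° C. at a sub-lethal, growth-inhibiting level; fluorescent cDNA (Cy3- or Cy5-dUTP) was hybridized to a genome-wide yeast chip for over 12 h at 65° C.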

Na2As [(1)]
The level of expressed mRNA in the presence of chemical substance/The level of expressed mRNA in the absence of chemical substance (yeast gene YGR224W): 0.9
The level of expressed mRNA in the presence of chemical substance/The level of expressed mRNA in the absence of chemical substance (yeast gene YGR260W): 0.6
The level of expressed mRNA in the presence of chemical substance/The level of expressed mRNA in the absence of chemical substance (yeast gene YGR281W): 1.2
The level of expressed mRNA in the presence of chemical substance/The level of expressed mRNA in the absence of chemical substance (yeast gene YHL035C): 0.7
The level of expressed mRNA in the presence of chemical substance/The level of expressed mRNA in the absence of chemical substance (yeast gene YHL040C): 1.6
The level of expressed mRNA in the presence of chemical substance/The level of expressed mRNA in the absence of chemical substance (yeast gene YHL047C): 0.6
The level of expressed mRNA in the presence of chemical substance/The level of expressed mRNA in the absence of chemical substance (yeast gene YHR026W): 0.9
The level of expressed mRNA in the presence of chemical substance/The level of expressed mRNA in the absence of chemical substance (yeast gene YHR092C): 2.3
The level of expressed mRNA in the presence of chemical substance/The level of expressed mRNA in the absence of chemical substance (yeast gene YHR094C): 0.7
The level of expressed mRNA in the presence of chemical substance/The level of expressed mRNA in the absence of chemical substance (yeast gene YHR175W): 0.8
The level of expressed mRNA in the presence of chemical substance/The level of expressed mRNA in the absence of chemical substance (yeast gene YIL006W): 1.0
The level of expressed mRNA in the presence of chemical substance/The level of expressed mRNA in the absence of chemical substance (yeast gene YIL022W): 0.8
The level of expressed mRNA in the presence of chemical substance/The level of expressed mRNA in the absence of chemical substance (yeast gene YIL056W): 1.1
The level of expressed mRNA in the presence of chemical substance/The level of expressed mRNA in the absence of chemical substance (yeast gene YIL088C): 0.9
The level of expressed mRNA in the presence of chemical substance/The level of expressed mRNA in the absence of chemical substance (yeast gene YJL034W): 0.7
The level of expressed mRNA in the presence of chemical substance/The level of expressed mRNA in the absence of chemical substance (yeast gene YJL212C): 0.8
The level of expressed mRNA in the presence of chemical substance/The level of expressed mRNA in the absence of chemical substance (yeast gene YJL219W): 1.2
The level of expressed mRNA in the presence of chemical substance/The level of expressed mRNA in the absence of chemical substance (yeast gene YJR077C): 1.1
The level of expressed mRNA in the presence of chemical substance/The level of expressed mRNA in the absence of chemical substance (yeast gene YJR106W): 0.9
The level of expressed mRNA in the presence of chemical substance/The level of expressed mRNA in the absence of chemical substance (yeast gene YJR121W): 0.9
The level of expressed mRNA in the presence of chemical substance/The level of expressed mRNA in the absence of chemical substance (yeast gene YKL016C): 1.5
The level of expressed mRNA in the presence of chemical substance/The level of expressed mRNA in the absence of chemical substance (yeast gene YKL146W): 0.8
The level of expressed mRNA in the presence of chemical substance/The level of expressed mRNA in the absence of chemical substance (yeast gene YKR039W): 1.4
The level of expressed mRNA in the presence of chemical substance/The level of expressed mRNA in the absence of chemical substance (yeast gene YKR067W): 0.8
The level of expressed mRNA in the presence of chemical substance/The level of expressed mRNA in the absence of chemical substance (yeast gene YLL028W): 0.6
The level of expressed mRNA in the presence of chemical substance/The level of expressed mRNA in the absence of chemical substance (yeast gene YLR081W): 1.3
The level of expressed mRNA in the presence of chemical substance/The level of expressed mRNA in the absence of chemical substance (yeast gene YLR295C): 1.4
The level of expressed mRNA in the presence of chemical substance/The level of expressed mRNA in the absence of chemical substance (yeast gene YLR348C): 1.1
The level of expressed mRNA in the presence of chemical substance/The level of expressed mRNA in the absence of chemical substance (yeast gene YLR378C): 0.7
The level of expressed mRNA in the presence of chemical substance/The level of expressed mRNA in the absence of chemical substance (yeast gene YMR011W): 1.3
The level of expressed mRNA in the presence of chemical substance/The level of expressed mRNA in the absence of chemical substance (yeast gene YMR162C): 0.8
The level of expressed mRNA in the presence of chemical substance/The level of expressed mRNA in the absence of chemical substance (yeast gene YMR203W): 0.8
The level of expressed mRNA in the presence of chemical substance/The level of expressed mRNA in the absence of chemical substance (yeast gene YNL055C): 1.1
The level of expressed mRNA in the presence of chemical substance/The level of expressed mRNA in the absence of chemical substance (yeast gene YNR072W): 1.1
The level of expressed mRNA in the presence of chemical substance/The level of expressed mRNA in the absence of chemical substance (yeast gene YOL119C): 2.6
The level of expressed mRNA in the presence of chemical substance/The level of expressed mRNA in the absence of chemical substance (yeast gene YOL156W): 1.1
The level of expressed mRNA in the presence of chemical substance/The level of expressed mRNA in the absence of chemical substance (yeast gene YOL163W): 1.5
The level of expressed mRNA in the presence of chemical substance/The level of expressed mRNA in the absence of chemical substance (yeast gene YOR035C): 1.2
The level of expressed mRNA in the presence of chemical substance/The level of expressed mRNA in the absence of chemical substance (yeast gene YOR130C): 0.8
The level of expressed mRNA in the presence of chemical substance/The level of expressed mRNA in the absence of chemical substance (yeast gene YOR153W): 1.6
The level of expressed mRNA in the presence of chemical substance/The level of expressed mRNA in the absence of chemical substance (yeast gene YOR273C): 0.7
The level of expressed mRNA in the presence of chemical substance/The level of expressed mRNA in the absence of chemical substance (yeast gene YOR316C): 0.7
The level of expressed mRNA in the presence of chemical substance/The level of expressed mRNA in the absence of chemical substance (yeast gene YOR328W): 1.0
The level of expressed mRNA in the presence of chemical substance/The level of expressed mRNA in the absence of chemical substance (yeast gene YOR332W): 1.1
The level of expressed mRNA in the presence of chemical substance/The level of expressed mRNA in the absence of chemical substance (yeast gene YOR348C): 1.1
The level of expressed mRNA in the presence of chemical substance/The level of expressed mRNA in the absence of chemical substance (yeast gene YPL036W): 0.5
The level of expressed mRNA in the presence of chemical substance/The level of expressed mRNA in the absence of chemical substance (yeast gene YPL134C): 1.5
The level of expressed mRNA in the presence of chemical substance/The level of expressed mRNA in the absence of chemical substance (yeast gene YPL271W): 1.2
The level of expressed mRNA in the presence of chemical substance/The level of expressed mRNA in the absence of chemical substance (yeast gene YPR192W): 0.9
The level of expressed mRNA in the presence of chemical substance/The level of expressed mRNA in the absence of chemical substance (yeast gene YPR194C): 2.2
